Values quoted from earlier work, collected in patent US5364629A, “Device and method for enhanced administration of physostigmine” (priority 1991, dated 1994).

Tests used:
[1] = American Journal of Psychiatry, July 1979
[2] = Davis, et al, Science, Volume 201, p. 272 (1978)
[3] = early observation, myasthenia gravis background
[4] = systemic use
[5] = tablets

Q: With `CNC(=O)Oc1ccc2c(c1)[C@]1(C)CCN(C)[C@@H]1N2C` [Physostigmine, physostigmine] as the compound, how does the “effect on tardive dyskinesia” value [1] read?
A: Its value is “positive: therapeutic effect on tardive dyskinesia”.

Q: What about the “retrieval of information from long-term memory” value [2] of the same compound?
A: The value was “retrieval of information from long-term memory was also improved”.

Q: What about the “storage of information into long-term memory” value [2] of the same compound?
A: Its value is “significantly enhanced storage of information into long-term memory”.

Q: What about the “strength of muscular contraction” value [3] of the same compound?
A: Its value is “increased strength of muscular contraction”.

Q: And the therapeutic window [4]?
A: The therapeutic window was “narrow therapeutic window”.

Q: And the “drug blood levels for multiple oral doses” value [5]?
A: The value was “ranging from a maximum above the required level (and possibly in the toxic range) to a minimum which may be below the effective dose”.
